According to patent publication US20120207856A1, “MSH3 Expression Status Determines the Responsiveness of Cancer Cells to the Chemotherapeutic Treatment with PARP Inhibitors and Platinum Drugs” (Baylor Research Institute, priority 2011, published 2012):
Read-outs that look alike come from different tables or passages of the source.

Tests used:
MSH3-deficient cells = test: Sensitivity of MSH3-deficient cells to SN-38 (data not shown); format: cell-based
HCT116+3+5 cells = test: Clonogenic survival after transient MSH3 siRNA transfection; format: cell-based, human; conditions: MSH3 siRNA versus non-targeted siRNA; cisplatin 5 μM and 10 μM, oxaliplatin 2 μM and 5 μM, 48 hours after transfection; FIGS. 3B & 3C
[1] = tested on: HCT116, HCT116+3, HCT116+3+5, G1, G2 and G5 cells; test: Clonogenic survival assay in isogenic HCT116-derived cell lines; format: cell-based, human
Protocol: (§1) Cell lines and cell culture—The human colon cancer cell lines HCT116, HCT116+ch.3 (HCT116+3), HCT116+ch.3+ch.5 (HCT116+3+5) have been described previously (10,23). HCT116+3+5 cells were stably transfected with a tetracycline-regulated retroviral vector, the TMP (Open Biosystems, Huntsville, Ala.) that encodes shRNA against MSH3. Stable MSH3-deficient clones G1, G2 and G5 were isolated (see results and (23)). HCT116, HCT116+3, and HCT116+3+5 cells were grown in IMDM (Invitrogen, Rockville, Md.) with 10% fetal bovine serum. The G1, G2 and G5 cells were maintained in IMDM with 10% fetal bovine serum and 0.6 μg/ml of puromycin. To turn off the expression of MSH3 shRNA, 1 μg/ml of doxycycline was added to the culture medium.
Clonogenic survival assay—Two hundred cells were seeded in each well of a six-well plate. For the measurement of the cytotoxicity caused by cisplatin or oxaliplatin, the cells were treated with the drugs for 24 hours once the cells were attached to the plate. For the measurement of the cytotoxicity caused by olaparib, cells were continuously treated with the drug during the experiments. After 8-10 days, the number of colonies (colonies with >50 cells) were counted, and the relative change in clonogenic survival of drug-treated versus untreated cells was determined.

HCT116+3+5 and G5 cells [2] = test: Clonogenic survival after MLH1 siRNA transfection; format: cell-based, human
[3] = tested on: tumors occurring in MSH2-null mice; conditions: MSH2-null mice versus mice with MSH2 G674D mutations; cited from earlier work
HHUA cells = conditions: MSH3-deficient HHUA versus MSH3-proficient HHUA complemented with chromosome 5; cited from earlier work
HT29 cells = test: Clonogenic survival after transient MSH3 siRNA transfection; format: cell-based, human; conditions: HT29 cells treated with MSH3 siRNA versus non-targeted siRNA; FIGS. 3E & 3F
MSH3 = test: Western blot analysis of MSH3 expression; format: cell-based, human; conditions: G1, G2 and G5 clones; doxycycline 1 μg/ml; densitometry; FIGS. 1A & 1B
Protocol: as §1
Western blot analysis—Proteins from cell lysates were prepared, separated on the SDS-PAGE and transferred to PVDF membranes as described previously (31). Anti-hMSH3 mouse monoclonal antibody (dilution; 1:250, Clone 52, BD Pharmingen, San Jose, Calif.), anti-hMLH1 mouse monoclonal antibody (1:200, G168-728, BD Pharmingen) and anti-β-actin antibody (1:10000, Clone AC-15, Sigma-Aldrich) were used as primary antibodies for the detection of specific proteins. Goat anti-mouse antibody (1:3000, sc-2005, Santa Cruz Biotechnology, Santa Cruz, Calif.) was used as a secondary antibody. […]

HCT116+3+5 and G1 cells = test: Cell cycle analysis by flow cytometry; format: cell-based, human; conditions: MSH3-deficient versus MSH3-proficient cells
Protocol: Cell cycle analysis—One million cells were seeded in 10 cm plates. Once attached, the cell lines were treated with oxaliplatin for 24 hours. After an additional 48 hours, cells were washed twice with cold PBS, fixed in cold 70% ethanol at −20° C. overnight or for several days. The ethanol fixed cells (2×10^6) were subsequently washed with PBS twice and incubated with 300 μl of PBS and 0.15% RNase A for 15 minutes at 37° C. The cells were stained with 75 μg/ml propidium iodide for 30 minutes and then analyzed for DNA content using the FACSCantoII flow cytometer (BD Biosciences, San Jose, Calif.). Cell cycle data was analyzed by the Flowjo software (Tree Star, Ashland, Oreg.).

pH2AX = test: Immunofluorescence staining for pH2AX foci; format: cell-based, human
Protocol: (§2) Immunofluorescence staining—Ten thousand cells were grown on glass coverslips in a 12-well plate. The cells were fixed with 4% paraformaldehyde (pH 7.5) in PBS for 15 minutes, permeabilized with 0.3% Triton X-100 for five minutes, and then blocked with 10% goat serum (Invitrogen, Carlsbad, Calif.) for one hour. The cells were subsequently incubated with an anti-active caspase-3 antibody (1:500, G748, Promega, Madison, Wis.) an anti-phosphorylated H2AX (pH2AX) antibody (1:5000, JBW301, Millipore Corporation, Billerica, Mass.), or an anti-53BP1 antibody (1:600, ab21083, Abcam, Cambridge, Mass.) for one hour, followed by a secondary antibody (1:800, Alexa Fluor 555 goat anti-mouse or anti-rabbit antibody, Invitrogen) for 40 minutes. Prolong Gold with DAPI (Invitrogen) was used in mounting the medium. The images were obtained using AxioSkop2 multichannel epifluorescence microscope equipped with the AxioVision software (Carl Zeiss, Thornwood, N.Y.).

53BP1 = test: Immunofluorescence staining for 53BP1 foci; format: cell-based, human; conditions: MSH3-deficient G5 cells after treatment; 5 μM for 6 hours, analyzed after 48 hours; FIGS. 5C & 5D
Protocol: as §2

HCT116+3+5 and G5 cells [4] = test: Proliferation assay (BrdU incorporation); format: cell-based, human; conditions: MSH3-deficient cells; FIG. 2G
Protocol: Proliferation assay—The proliferation index was measured by bromodeoxyuridine (BrdU) incorporation in HCT116+3+5 and G5 cells, 48 hours after the initial 24 hour treatment with cisplatin or oxaliplatin (Cell Proliferation ELISA, BrdU, Roche Diagnositics, Indianapolis, Ind.). Experiments were performed in triplicate and data was obtained from three or four independent experiments.

HCT116+3+5 and G5 cells [5] = test: Immunofluorescence staining for active caspase-3; format: cell-based, human; conditions: MSH3-deficient cells, FIG. 2H
Protocol: as §2

CCc1c2c(nc3ccc(O)cc13)-c1cc3c(c(=O)n1C2)COC(=O)[C@]3(O)CC [SN-38]
sensitization by MSH3 deficiency (MSH3-deficient cells): sensitized

N.N.[Cl][Pt][Cl] [cisplatin]
susceptibility (clonogenic survival) (HCT116+3+5 cells): more susceptible | sensitivity (clonogenic survival) ([1]; G1 and G2 clones, data not shown): behaved similarly to G5 | sensitivity (clonogenic survival) on restoration of MSH3 expression ([1]; G5 cells with versus without doxycycline, 5 μM, FIG. 2B): desensitized | sensitivity (clonogenic survival) ([1]; HCT116 versus HCT116+3 cell lines, FIG. 2A): No significant differences | sensitivity (clonogenic survival) ([1]; MSH3-deficient G5 clone versus parental HCT116+3+5, FIG. 2A): more sensitive | resistance (clonogenic survival) ([1]; MSH3-proficient HCT116+3+5 versus HCT116 and HCT116+3, FIG. 2A): higher resistance | sensitivity (clonogenic survival) (HCT116+3+5 and G5 cells [2]; G5 versus HCT116+3+5, MLH1 down-regulated by siRNA, 2 μM and 5 μM, FIGS. 4C & 4D): more sensitive | resistance of tumors [3]: more resistant | sensitivity (HHUA cells): did not differ | sensitivity (clonogenic survival) (HT29 cells): more sensitive

C[C@H]1c2cccc(O)c2C(=O)C2=C(O)[C@]3(O)C(=O)C(C(N)=O)=C(O)[C@@H](N(C)C)[C@@H]3[C@@H](O)[C@@H]21 [doxycycline]
MSH3 expression relative to parental HCT116+3+5 (MSH3): 40-60%

O=C(c1cc(Cc2n[nH]c(=O)c3ccccc23)ccc1F)N1CCN(C(=O)C2CC2)CC1 [olaparib]
sensitivity (clonogenic survival) ([1]; MSH3-deficient G5 versus MSH3-restored G5 cell line, 2 μM, FIG. 6A): more sensitive

O=C1[O][Pt]2([NH][C@@H]3CCCC[C@H]3[NH]2)[O]C1=O [oxaliplatin]
susceptibility (clonogenic survival) (HCT116+3+5 cells): more susceptible | sensitivity (clonogenic survival) ([1]; MSH3-deficient HCT116, HCT116+3 and G5 versus parental HCT116+3+5, FIG. 2C): significantly more sensitive | sensitivity (clonogenic survival) on restoration of MSH3 ([1]; MSH3-deficient cells (G1, G2, G5) with versus without doxycycline 1 μg/ml, FIG. 2D): restoration of oxaliplatin insensitivity | sensitivity (clonogenic survival) (HCT116+3+5 and G5 cells [2]): more sensitive | degree of cell growth inhibition (decrease in S-phase population) (HCT116+3+5 and G1 cells; FIG. 2E): significantly higher | levels of apoptosis (increase in sub-G1 population) (HCT116+3+5 and G1 cells; FIG. 2F): significantly higher | rate of reduction in the number of pH2AX foci-positive cells (pH2AX; MSH3-deficient G5 versus MSH3-restored G5 and HCT116+3+5, 48 and 72 hours, FIGS. 5A & 5B): lower rate of reduction | number of pH2AX foci-positive cells before and after treatment (pH2AX; MSH3-proficient versus -deficient cell lines, 5 μM for 6 hours): no differences | levels of 53BP1 (53BP1): Sustained levels | cell proliferation (BrdU incorporation) (HCT116+3+5 and G5 cells [4]): decreased | apoptotic fraction (anti-active caspase-3 positive cells) (HCT116+3+5 and G5 cells [5]): increased | sensitivity (HHUA cells): did not differ | sensitivity (clonogenic survival) (HT29 cells): more sensitive
